Assay results as given in patent US10000535B2, “Template-fixed peptidomimetics” (POLYPHOR LTD., priority 2007, dated 2018).
Non-standard residues stand in square brackets, D forms with d. Residues, ends and D or L forms follow the SMILES beside them. Aze = O=C(O)[C@@H]1CCN1

Experiments:
Format in all cases: cell-based
Details in all cases: at 10 μM
CCR3 = biological target: T1, CCR3 (Homo sapiens, UniProt P51677); experiment: Selectivity calcium flux assay, chemokine receptor panel
T1 sequence (P51677 1-355): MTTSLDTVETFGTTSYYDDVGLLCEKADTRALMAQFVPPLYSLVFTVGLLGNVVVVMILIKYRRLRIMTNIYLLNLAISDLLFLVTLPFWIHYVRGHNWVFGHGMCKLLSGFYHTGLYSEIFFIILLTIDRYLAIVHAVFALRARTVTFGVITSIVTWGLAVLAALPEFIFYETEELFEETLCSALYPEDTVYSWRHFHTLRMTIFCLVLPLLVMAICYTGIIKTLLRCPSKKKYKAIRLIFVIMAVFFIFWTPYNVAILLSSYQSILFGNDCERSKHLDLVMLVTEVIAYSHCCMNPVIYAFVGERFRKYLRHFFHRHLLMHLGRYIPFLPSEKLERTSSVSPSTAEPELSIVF
Experimental: (§1) Selectivity was measured using the calcium flux assay on a panel of human chemokine receptor bearing cell lines (CCR1, CCR2, CCR3, CCR4, CCR5, CCR6, CCR7, CCR8, CCR9, CCR10, CXCR1, CXCR2, CXCR2, CXCR4, CXCR6 and CXCCR1) using the same method as above

CCR7 = biological target: T2, CCR7 (Homo sapiens, UniProt P32248); experiment: as above
T2 sequence (P32248 25-378): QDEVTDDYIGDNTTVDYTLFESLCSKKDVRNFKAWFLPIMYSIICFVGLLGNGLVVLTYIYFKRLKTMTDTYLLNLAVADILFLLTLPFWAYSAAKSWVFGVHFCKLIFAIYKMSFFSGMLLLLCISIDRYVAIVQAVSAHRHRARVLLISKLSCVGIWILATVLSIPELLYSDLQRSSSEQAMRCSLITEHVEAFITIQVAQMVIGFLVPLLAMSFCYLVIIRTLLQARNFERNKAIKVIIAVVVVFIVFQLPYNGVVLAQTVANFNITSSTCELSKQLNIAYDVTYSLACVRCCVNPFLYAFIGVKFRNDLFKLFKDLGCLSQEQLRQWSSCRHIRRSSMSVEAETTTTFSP
Experimental: as §1

CCR8 = CCR8 (Homo sapiens, UniProt P51685); experiment: as above
Experimental: as §1

CCR6 = biological target: T3, CCR6 (Homo sapiens, UniProt P51684); experiment: as above
T3 sequence (P51684 1-374): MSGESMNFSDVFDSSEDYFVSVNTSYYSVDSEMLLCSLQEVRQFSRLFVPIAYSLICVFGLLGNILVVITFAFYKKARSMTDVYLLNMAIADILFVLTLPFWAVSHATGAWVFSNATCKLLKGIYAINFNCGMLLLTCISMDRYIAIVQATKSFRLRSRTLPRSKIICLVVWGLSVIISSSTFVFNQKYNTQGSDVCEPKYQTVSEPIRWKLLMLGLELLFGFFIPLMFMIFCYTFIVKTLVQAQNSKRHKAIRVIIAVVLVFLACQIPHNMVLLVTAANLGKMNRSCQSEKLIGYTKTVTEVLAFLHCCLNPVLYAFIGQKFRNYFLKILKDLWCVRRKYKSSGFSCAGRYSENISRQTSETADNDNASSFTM
Experimental: as §1

CXCR6 = CXCR6 (Homo sapiens, UniProt O00574); experiment: as above
Experimental: as §1

CCR1 = biological target: T4, CCR1 (Homo sapiens, UniProt P32246); experiment: as above
T4 sequence (P32246 1-355): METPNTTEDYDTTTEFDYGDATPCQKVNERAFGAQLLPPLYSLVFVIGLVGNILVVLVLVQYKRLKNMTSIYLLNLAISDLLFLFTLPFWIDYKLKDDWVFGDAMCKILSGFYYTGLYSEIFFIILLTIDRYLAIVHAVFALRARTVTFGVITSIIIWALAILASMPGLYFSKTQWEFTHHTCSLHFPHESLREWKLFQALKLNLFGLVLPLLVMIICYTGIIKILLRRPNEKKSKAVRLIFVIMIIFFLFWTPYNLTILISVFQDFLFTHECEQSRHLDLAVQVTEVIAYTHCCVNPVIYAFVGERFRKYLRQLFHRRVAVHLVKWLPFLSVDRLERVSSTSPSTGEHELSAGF
Experimental: as §1

CCR2 = CCR2 (Homo sapiens, UniProt P41597); experiment: as above
Experimental: as §1

human CCR10 = biological target: T5, human CCR10 (Homo sapiens, UniProt P46092); experiment: Calcium flux antagonism assay with human CCL27
T5 construct: expressed in transfected cells; host or cells: mouse pre-B cell line 300-19
T5 sequence (P46092 1-362): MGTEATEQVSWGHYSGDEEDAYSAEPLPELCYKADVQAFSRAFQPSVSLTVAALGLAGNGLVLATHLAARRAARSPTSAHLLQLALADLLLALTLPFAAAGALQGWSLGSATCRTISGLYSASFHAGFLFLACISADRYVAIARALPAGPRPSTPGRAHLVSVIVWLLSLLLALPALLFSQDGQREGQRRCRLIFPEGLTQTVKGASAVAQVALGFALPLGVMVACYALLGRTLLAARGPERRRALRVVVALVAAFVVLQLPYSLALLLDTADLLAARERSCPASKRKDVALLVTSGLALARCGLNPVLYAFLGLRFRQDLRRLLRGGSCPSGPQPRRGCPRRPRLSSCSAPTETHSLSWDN
Experimental: The mouse pre-B cell line 300-19 was stably transfected with the cDNA encoding the human UTR2 receptor (GenBank Acc#NM_018949), and expression was confirmed with a positive calcium signal in response to human urotensin (Sigma Aldrich). Increases in intracellular calcium were monitored using a Flexstation 384 (Molecular Devices, Sunnyvale, Calif.). The cells were batch loaded with the Calcium 3 Assay kit (Molecular Devices) in assay buffer (Hanks Balanced salt solution, HBSS, 20 mM HEPES, pH 7.4, 0.1% BSA) for 1 h at room temperature and labeled cells were dispensed into either black 96 well or 384 well assay plates (Greiner). Calcium mobilization induced by urotensin or compounds was measured in the Flexstation 384 (excitation, […]) for 70 seconds. Agonist activity was determined by direct addition of ligand or peptides, while antagonists were identified by pre-incubation of compounds with cells prior to urotensin addition. A dose response curve (compound concentration versus % maximum response for urotensin) was determined for each active agonist and antagonist and was fitted to a four parameter logistic equation using SoftmaxPro 4.6 (Molecular Devices), from which EC50% and IC50% values were calculated.
Peptides for CCR10 (Marchese et. al. 1994, Homey et. al.) and CXCR3 (Loetscher et. al. 1998, Marchese et. al. 1995) antagonism were assayed in a mouse pre-B cell line 300-19 stably transfected with either human CCR10 or CXCR3 (Marchese et. al. 1995). Antagonism at each receptor was measured with a calcium flux assay in these cells as described above for UTR2 assays using human CCL27 and human CXCL10 (Cole et. al.) for CCR10 and CXCR3 respectively.
as §1

Sequence of CXCR6 (O00574 whole entry): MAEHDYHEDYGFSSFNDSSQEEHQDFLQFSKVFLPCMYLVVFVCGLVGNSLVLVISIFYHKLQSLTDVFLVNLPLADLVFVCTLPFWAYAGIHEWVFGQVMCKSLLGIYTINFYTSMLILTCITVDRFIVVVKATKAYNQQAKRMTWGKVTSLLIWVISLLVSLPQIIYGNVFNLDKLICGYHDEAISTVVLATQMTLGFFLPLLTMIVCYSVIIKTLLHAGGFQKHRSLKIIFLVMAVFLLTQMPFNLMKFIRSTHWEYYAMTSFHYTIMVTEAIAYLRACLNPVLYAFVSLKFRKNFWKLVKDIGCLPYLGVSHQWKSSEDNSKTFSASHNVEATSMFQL
Sequence of CCR8 (P51685 whole entry): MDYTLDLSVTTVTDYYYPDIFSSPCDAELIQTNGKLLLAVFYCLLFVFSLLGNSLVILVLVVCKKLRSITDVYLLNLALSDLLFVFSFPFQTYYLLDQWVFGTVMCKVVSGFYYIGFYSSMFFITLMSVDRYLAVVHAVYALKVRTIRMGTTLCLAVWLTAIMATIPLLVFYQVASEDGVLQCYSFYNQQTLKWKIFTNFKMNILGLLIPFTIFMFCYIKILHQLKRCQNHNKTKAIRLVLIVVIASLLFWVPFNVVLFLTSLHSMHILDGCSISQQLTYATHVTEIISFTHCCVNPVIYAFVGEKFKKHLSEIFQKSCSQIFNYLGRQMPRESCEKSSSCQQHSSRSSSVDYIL
Sequence of CCR2 (P41597 whole entry): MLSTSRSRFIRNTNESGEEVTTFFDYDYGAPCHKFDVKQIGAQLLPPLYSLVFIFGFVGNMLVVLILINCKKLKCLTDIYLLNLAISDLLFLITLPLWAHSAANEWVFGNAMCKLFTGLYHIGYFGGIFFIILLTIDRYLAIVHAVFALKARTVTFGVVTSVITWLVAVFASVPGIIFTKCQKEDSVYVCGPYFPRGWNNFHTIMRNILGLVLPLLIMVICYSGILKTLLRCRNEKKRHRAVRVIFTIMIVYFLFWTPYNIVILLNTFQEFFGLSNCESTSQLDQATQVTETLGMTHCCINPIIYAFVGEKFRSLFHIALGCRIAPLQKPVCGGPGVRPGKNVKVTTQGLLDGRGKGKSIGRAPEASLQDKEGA

N=C(N)NCCC[C@@H]1NC(=O)[C@H](Cc2c[nH]c3ccccc23)NC(=O)[C@H](Cc2ccc(O)cc2)NC(=O)[C@@H]2CCN2C(=O)[C@H]2CCCN2C(=O)CNC1=O [Example 15] (cyclo(YWRG[dP][Aze]))
highly selective: selectivity against CCR3 (CCR3) | selectivity against CCR7 (CCR7) | selectivity against CCR8 (CCR8) | selectivity against CCR6 (CCR6) | selectivity against CXCR6 (CXCR6) | selectivity against CCR1 (CCR1) | selectivity against CCR2 (CCR2) | selectivity against CCR10 (human CCR10)

C[C@@H]1NC(=O)[C@H](CCCNC(=N)N)NC(=O)[C@H](Cc2c[nH]c3ccccc23)NC(=O)[C@H](Cc2ccc(O)cc2)NC(=O)[C@@H]2CCN2C(=O)[C@H]2CCCN2C1=O [Example 16] (cyclo(YWRA[dP][Aze]))
highly selective: selectivity against CCR3 (CCR3) | selectivity against CCR7 (CCR7) | selectivity against CCR8 (CCR8) | selectivity against CCR6 (CCR6) | selectivity against CXCR6 (CXCR6) | selectivity against CCR1 (CCR1) | selectivity against CCR2 (CCR2) | selectivity against CCR10 (human CCR10)
